pEC50, pIC50: −log10 of the molar value. Where a SMILES comes first, the peptide text is derived from it. Bridges are numbered along the chain shown (N, C = ends).
What was measured:
[1] = target: AgrC receptor of group I S. aureus (Staphylococcus aureus); test: cell-based or functional assay
[2] = system: agr response in groups I, II and III S. aureus strains; test: agr P3-blaZ β-lactamase reporter assay, activation/inhibition in the three S. aureus strains; format: cell-based
Method: (§1) The synthetic AgrD peptides shown in Table 1 include the following: Agr D1 Thiolactone. […] (SEQ ID NO: 9): Agr D2 Thiolactone, […] (SEQ lID NO: 1): Agr D2 Linear Thioester, […] (SEQ ID NO: 1): Agr D2 Linear Free Acid […] (SEQ ID NO: 1); Agr D2 Lactone, […] (SEQ ID NO: 1); and Agr D2 Lactam, GVNAXSSLF (SEQ ID NO: 1).
(§2) Biological activity of synthetic AgrD peptides. Biological assays were performed using groups I (RN6390B), II (SA502A) and III (RN8463) S. aureus strains (Ji et al. (1997) supra), each containing an agr P3-blaZ fusion plasmid (Novick et al. (1995) supra). Cells were grown in CYGP medium at 37° C. to either early exponential phase for agr activation studies, or midexponential phase for agr inhibition studies. To the cultured cells were then added one of the following: buffer solution (negative control), the appropriate cell supernatant containing the natural AgrD peptide as prepared as in (Ji, G., et al., 1995) (positive control) or the synthetic peptide solution in 20 mM tris.HCl buffer at pH 6.0.

[3] = target: agr response in group III (RN8463) S. aureus; test: agr P3-blaZ β-lactamase reporter assay, activation of the agr response; format: cell-based; conditions: early exponential phase, 55 minutes
Method: as §1, §2

[4] = target: agr response in group I (RN6390B) S. aureus; test: as above; format: cell-based; conditions: early exponential phase, 55 minutes
Method: as §1, §2

[5] = target: agr response in group II (SA502A) S. aureus; test: as above; format: cell-based; conditions: early exponential phase, 55 minutes
Method: as §1, §2

[6] = system: agr response in group III (RN8463) S. aureus; test: agr P3-blaZ β-lactamase reporter assay, inhibition of the agr response; format: cell-based
Method: as §1, §2

[7] = system: agr response in group I (RN6390B) S. aureus; test: as above; format: cell-based; conditions: for pIC50 / IC50 Inhibition, S. aureus Group I: group I (RN6390B), midexponential phase, 80 minutes
Method: as §1, §2

[8] = target: agr response in group II (SA502A) S. aureus; test: as above; format: cell-based; conditions: for inhibition of self (own group): own S. aureus group (group II)
Method: as §1, §2

[9] = target: AgrC receptor of group II S. aureus (Staphylococcus aureus); test: cell-based or functional assay
[10] = target: AgrC receptor of group III S. aureus (Staphylococcus aureus); test: cell-based or functional assay
[11] = Determination of AIP-II half-life: incubation in PBS or rabbit serum, then dose-response activation of β-lactamase induction; format: cell-based, S. aureus; conditions: rabbit, rabbit serum; from EC50 shift PBS vs serum; given as in vivo
Method: (§3) Determination of AIP-II half-life. To approximate the active lifetime of AIP, a synthetic version of AIP-IL (Lyon et al. (2002) Biochemistry 41, 10095-104) was incubated in PBS or rabbit serum at 37° C. for 4 hours. The sample was diluted and a dose-response assay for activation of β-lactamase induction of strain RN7206 carrying the agrCA-II agrp3-blaZ reporter fusion was performed as previously described (Lyon et al. (2002) supra; Wright III et al. (2004) Proc. Natl. Acad. Sci., USA).

[12] = system: strain RN7206 carrying the agrCA-II agrp3-blaZ reporter fusion; test: as above; format: cell-based, S. aureus; conditions: normal rabbit serum
Method: as §3

[13] = system: agr-I bacteria (RN6734) carrying agrp3-lux or blaZp-lux; test: Murine subcutaneous abscess model with in vivo bioluminescence imaging; design: species or system SKH-1 mice; conditions: mice, single dose 10 μg co-injected with agr-I bacteria
Method: Murine subcutaneous abscess model. Groups (n=3 per variable examined) of hairless, euthymic SKH-1 (ISL) mice (Charles River) were used in the murine subcutaneous abscess model (Bunce et al. (1992) Infect. Immun. 60, 2636-40). In this model, staphylococci are injected subcutaneously with cytodex beads, and an abscess develops at the site of injection 2-3 days later, then sloughs and drains. The organisms grow rapidly initially, after which the population levels out and remains constant thereafter. Polymorphonuclear leuykocytes (PMNs) are attracted to the developing lesion by bacterial products and by pro-inflammatory cytokines, reaching maximum numbers by about 6 hours.
Bacteria were thawed, diluted to appropriate cell density, mixed with sterile cytodex beads (Sigma) and injected subcutaneously in a volume of 0.1 ml in the flank region. […] Mice were fed a standard diet ad libitum and monitored daily for signs of distress. Colony forming units (CFU) per abscess were determined by plating serial dilutions of excised lesions homogenized in PBS plus 0.5% Triton X-100.
Measurement of bioluminescence in vivo. […] For the graphs, the signal collected on a portion of the CCD array corresponding to the area of injected bacteria was determined in photons/sec/cm^2/sr, referred to as relative light units (RLU), and plotted vs. time after initiation of infection.

[14] = group II (SA502A), midexponential phase, 80 minutes
[15] = group III (RN8463), midexponential phase, 80 minutes

| Molecule | IC50 Inhibition (nM), agr P3-blaZ beta-lactamase reporter [1] [nM] | ED50 Activation, S. aureus Group III [3] | ED50 Activation, S. aureus Group I [4] | ED50 Activation, S. aureus Group II [5] | IC50 Inhibition, S. aureus Group II [8, 14] | IC50 Inhibition, S. aureus Group I [7] | further results |
| --- | --- | --- | --- | --- | --- | --- | --- |
| Agr D2 Lactam (peptide) | 0.21 |  |  |  |  |  |  |
| GVNAXSSLF (SEQ ID NO: 1) [Agr D2 Lactam] |  | No Activation | No Activation | No Activation | No Inhibition |  | activation of the agr response in any of the three S. aureus strains [2]: unable to activate; inhibition of the agr response in group III S. aureus strains [6]: able to inhibit; inhibition of the agr response in group I S. aureus strains [7]: able to inhibit; pIC50 [7]: 9.68; inhibition of self (own group) [8]: do not inhibit self |
| YSTCDFIM [Agr D1 Thiolactone, YSTCDFIM (SEQ ID NO: 9)] |  | No Activation |  | No Activation |  | No Inhibition | pEC50 ([4]; read-out: ED50 Activation, S. aureus Group I): 7.99; pIC50 [6, 15]: 8.49; pIC50 [8, 14]: 8.54 |
| Agr D1 Thiolactone (peptide) |  |  |  |  |  |  | IC50 Inhibition (nM), agr P3-blaZ beta-lactamase reporter [9]: 2.9 nM; ED50 Activation (nM), agr P3-blaZ beta-lactamase reporter [1]: 10.2 nM; IC50 Inhibition (nM), agr P3-blaZ beta-lactamase reporter [10]: 3.2 nM |
| Agr D2 Lactone (peptide) | 7.9 |  |  |  |  |  |  |
| GVNAASSLF [Agr D2 Linear Thioester, GVNAASSLF (SEQ ID NO: 1)] |  | No Activation | No Activation | No Activation | No Inhibition | No Inhibition | activation/inhibition of the agr response ([2]; added to cultured cells at μM concentrations): unable to either activate or inhibit; IC50 Inhibition, S. aureus Group III [6, 15]: No Inhibition |
| GVNASSSLF [Agr D2 Linear Free Acid, GVNASSSLF (SEQ ID NO: 1)] |  | No Activation | No Activation | No Activation | No Inhibition | No Inhibition | IC50 Inhibition, S. aureus Group III [6, 15]: No Inhibition |
| CC(C)C[C@@H]1NC(=O)[C@H](CO)NC(=O)[C@H](CO)NC(=O)[C@@H](NC(=O)[C@H](C)NC(=O)[C@H](CC(N)=O)NC(=O)[C@@H](NC(=O)CN)C(C)C)CSC(=O)[C@H](Cc2ccccc2)NC1=O [Agr D2 Thiololactone, GVNACSSLF (SEQ lID NO: 1)] (H-GVNACSSLF; thioester 5-C) |  |  |  |  |  |  | half-life [11]: < 4 h; in vitro lifetime [12]: ~4 h; effective biological lifetime of the peptide in vivo [13]: about 3 hours |
| Agr D2 Thiolactone (peptide) | 3.4 |  |  |  |  |  | ED50 Activation (nM), agr P3-blaZ beta-lactamase reporter [9]: 3.6 nM; IC50 Inhibition (nM), agr P3-blaZ beta-lactamase reporter [10]: 3.1 nM |
| GVNASSSLF (SEQ ID NO: 1) [Agr D2 Lactone] |  | No Activation | No Activation | No Activation | No Inhibition |  | activation of the agr response in any of the three S. aureus strains [2]: unable to activate; inhibition of the agr response in group III S. aureus strains [6]: able to inhibit; inhibition of the agr response in group I S. aureus strains [7]: able to inhibit; pIC50 [7]: 8.10; inhibition of self (own group) [8]: do not inhibit self |
